Legend:
acetylated histone H4 = experiment: Western blot of acetylated histone H4 in infected erythrocytes; assay type: cell-based, Plasmodium falciparum; details: 10 × IC50 for 4 h, trophozoites, vs DMSO
Protocol: (§1) Figure 5 Hydroxamic acid derivatives as potent in vitro PfHDAC1 inhibitors. […]. Enzyme activity was calculated by normalizing the data against the DMSO treated samples and discounting the background. Data are presented as shown above, with mean ± S.D. (n = 2). […]. Comparison of group/concentration against the DMSO control is represented as † for P < 0.0001. […]. Numbers on side of the bands represent the predicted mass (kDa) for each protein. (C,D) Band quantification of histone H3 (C) and H4 (D), respectively, normalizing their acetylated detection against their unmodified version. Differences to this value were analyzed by one way ANOVA using the Dunnett’s post correction, comparing each group against the DMSO control, as rank tests where P values are explicitly depicted.
(§2) Western Blot analysis. […]. Proteins were transferred to PVDF membranes, 5% non-fat dry milk in TBS with Tween 20 (0.1%) was used as blocking agent for 1 h at room temperature. After, incubated with the antibodies overnight at 4 °C (Acetyl Histone H3 Lys9 C5B11 Cell Signaling, Acetyl Histone H4 Lys16 E2B8W Cell Signaling, Histone H3 96C10 Cell Signaling and Histone H4 D2X4V Cell Signaling). For the analysis of protein acetylation levels, the membranes were stripped and re-probed with the corresponding anti-total protein. Mouse monoclonal anti-α-Tubulin (B512 Sigma-Aldrich) was used as loading control. Detection was performed by enhanced chemiluminescence using horseradish peroxidase-conjugated secondary antibodies (Vector Laboratories, Burlingame, CA, USA) and SuperSignal TM West Pico PLUS Chemiluminescent substrate kit (Thermo Scientific). Images were acquired using ChemiDoc TM Imaging System (BioRad Laboratories, CA, USA). Quantitative densitometry was carried out using ImageLab software (Bio-Rad Laboratories, CA, USA). The volume density of the chemiluminescent bands was calculated as an integrated optical density × mm^2 after background correction from each independent experiment (N = 3).

acetylated histone H3 = experiment: Western blot of acetylated histone H3 in infected erythrocytes; assay type: cell-based, Plasmodium falciparum; details: 10 × IC50 for 4 h, trophozoites, vs DMSO
Protocol: as §1, §2

Jurkat = test system: Jurkat; parameters: method as in PMID 33668008; details: Fig. 1A; cited from earlier work
Namalwa = test system: Namalwa; parameters: method as in PMID 33668008; details: Fig. 1A; cited from earlier work
P. falciparum Dd2 = experiment: Antiplasmodial SYBR Green I proliferation assay, P. falciparum Dd2; assay type: cell-based; details: Plasmodium falciparum, DD2; multidrug/CQ-resistant strain; read-out: IC50 P. falciparum Dd2
Text: Antiplasmodial activity against P. falciparum 3D7 (A, C and E) and P. falciparum Dd2 (B, D, F). […] Curves were plotted using non-linear regression based on means from three independent experiments measured in triplicate. Error bars indicate standard deviation, whose values are provided in the respective table.
Plasmodium falciparum culture and antiplasmodial activity. […] Development, parasitaemia, and morphology of parasites were monitored by light microscopy of thin blood smears stained according to the Romanowsky method (Panótico Rápido staining kit; Laborclin, Pinhais, Paraná, Brazil). […] Fresh 0^+ blood was generously provided by “Hospital Novo Atibaia” (Atibaia, SP, Brazil), and approved by the ethics committee at ICB-USP. The antiplasmodial effect of all compounds was validated against P. falciparum 3D7 strain conducting SYBR Green I (Invitrogen) drug assays as previously reported[30],[46] as a modification of the original procedure. […] Parasite proliferation was measured by the DNA load via fluorescence, using 100 μL of a lysis buffer with SYBR Green I (0.02% v/v) and incubated for 1 h at room temperature in the dark. […] Focal and gain adjustment was performed using the non-treated controls (highest expected fluorescence signal). Data was acquired via the CLARIOstar (V5.20) and MARS software, manually scaled to 0–100%, and plotted using GraphPad Prism (v9.5.2 for Windows, GraphPad Software, La Jolla California USA, www.graphpad.com). Non-treated parasites, the highest solvent concentration on parasites, CQ on parasites, and the highest drug concentration in the medium were used as controls for maximal growth, solvent control, positive biological control, and native drug fluorescence, respectively.

SMILES	Acetylated-H4 level (normalised to unmodified H4) (acetylated histone H4)	Acetylated-H3 level (normalised to unmodified H3) (acetylated histone H3)	IC50 (Jurkat)	IC50 (Namalwa)	IC50 (P. falciparum Dd2)
COc1ccc(NC(=O)Nc2ccc(/C=C/C(=O)NO)cc2)cc1 [Compound 6c, (E)-N-hydroxi-3-(4-(3-(4-methoxyphenyl)ureido)phenyl)acrylamide]	significant elevation	–	–	–	–
COc1ccc(NC(=O)Nc2ccc(CCC(=O)NO)cc2)cc1 [Compound 7c, N-hydroxy-3-(4-(3-(4-methoxyphenyl)ureido)phenyl)propanamide]	–	two-fold increase	–	–	–
O=C(Nc1ccccc1)Nc1ccc(C(=O)NO)cc1 [Compound 8a, N-hydroxy-4-(3-phenylureido)bezamide]	–	–	2500 nM	530 nM	–
COc1ccc(NC(=O)Nc2ccc(C(=O)NO)cc2)cc1 [Compound 8c, N-hydroxy-4-(3–4(-methoxyphenyl)ureido)benzamide]	significant elevation	two-fold increase	–	–	800 nM

From article PMC10687260, “1,3-Diphenylureido hydroxamate as a promising scaffold for generation of potent antimalarial histone deacetylase inhibitors” (Scientific Reports, 2023)
